Literature values as cited in article PMC7961821, “Comparing Ligninolytic Capabilities of Bacterial and Fungal Dye-Decolorizing Peroxidases and Class-II Peroxidase-Catalases” (International Journal of Molecular Sciences, 2021).

Key:
[1] = molecular target: T1, PerVPL (Pleurotus eryngii, UniProt O94753); experiment: steady-state kinetics, absorbance loss at […] nm; format: biochemical; details: read-out: RB19; 1 mM H2O2, optimal pH (not given for RB19), 25 °C
T1 construct: gene vpl2; heme enzyme
T1 sequence (O94753 31-361): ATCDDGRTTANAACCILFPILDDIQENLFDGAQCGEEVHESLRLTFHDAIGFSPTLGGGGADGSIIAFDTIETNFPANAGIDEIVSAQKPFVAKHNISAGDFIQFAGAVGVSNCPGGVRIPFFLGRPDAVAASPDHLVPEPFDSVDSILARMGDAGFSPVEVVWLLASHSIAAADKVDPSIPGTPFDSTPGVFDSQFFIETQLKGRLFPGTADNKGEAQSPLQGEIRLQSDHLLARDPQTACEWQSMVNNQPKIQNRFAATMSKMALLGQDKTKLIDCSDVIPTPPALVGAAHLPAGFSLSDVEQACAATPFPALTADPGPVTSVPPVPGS

[2] = molecular target: T2, PchLiPA (Phanerodontia chrysosporium, UniProt P06181); experiment: steady-state kinetics, absorbance loss at […] nm; format: biochemical; details: read-out: RB19; 1 mM H2O2, optimal pH (not given for RB19), 25 °C
T2 construct: gene LPOA; heme enzyme
T2 sequence (P06181 29-372): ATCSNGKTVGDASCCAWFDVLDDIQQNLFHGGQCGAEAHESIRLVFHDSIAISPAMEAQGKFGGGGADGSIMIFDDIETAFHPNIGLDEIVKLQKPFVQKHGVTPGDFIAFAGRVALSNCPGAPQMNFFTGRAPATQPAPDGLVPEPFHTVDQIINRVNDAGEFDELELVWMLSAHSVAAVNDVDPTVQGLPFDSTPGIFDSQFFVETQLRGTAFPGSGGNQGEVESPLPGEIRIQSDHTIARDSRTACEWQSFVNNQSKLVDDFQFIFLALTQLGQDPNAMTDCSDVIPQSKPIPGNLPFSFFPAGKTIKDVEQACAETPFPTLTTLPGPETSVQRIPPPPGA

Km [1]: 33 ± 8 µM
Km [2]: 34 ± 13 µM
SMILES: Nc1c(S(=O)(=O)O)cc(Nc2cccc(S(=O)(=O)CCOS(=O)(=O)O)c2)c2c1C(=O)c1ccccc1C2=O [RB19]
